Measured values as given in PubChem BioAssay (NCI).
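48-hour exposure; five concentrations; linearly interpolated endpoints. GI50: concentration for 50% inhibition of growth. TGI is the concentration that stops growth completely.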

Tests used:
Test in all cases: NCI-60 cell line screen, 48 h
COLO 205 colon = tested on: COLO 205 colon
UACC-257 melanoma = tested on: UACC-257 melanoma
IGROV1 ovarian = tested on: IGROV1 ovarian
SR leukemia = tested on: SR leukemia
TK-10 renal = tested on: TK-10 renal
OVCAR-5 ovarian = tested on: OVCAR-5 ovarian
HOP-62 NSCLC = tested on: HOP-62 NSCLC
T-47D breast = tested on: T-47D breast
NCI-H226 lung = tested on: NCI-H226 lung
U251 CNS = tested on: U251 CNS
SK-MEL-28 melanoma = tested on: SK-MEL-28 melanoma

SMILES	TGI (COLO 205 colon) [µM]	TGI (UACC-257 melanoma) [µM]	TGI (IGROV1 ovarian) [µM]	TGI (SR leukemia) [µM]	TGI (TK-10 renal) [µM]	TGI (OVCAR-5 ovarian) [µM]	TGI (HOP-62 NSCLC) [µM]	TGI (T-47D breast) [µM]	TGI (NCI-H226 lung) [µM]	TGI (U251 CNS) [µM]	TGI (SK-MEL-28 melanoma) [µM]	GI50 (UACC-257 melanoma) [µM]	GI50 (TK-10 renal) [µM]	GI50 (HOP-62 NSCLC) [µM]	GI50 (T-47D breast) [µM]	GI50 (NCI-H226 lung) [µM]	GI50 (SK-MEL-28 melanoma) [µM]	GI50 (COLO 205 colon) [µM]	GI50 (SR leukemia) [µM]	GI50 (U251 CNS) [µM]
Clc1cc(OCc2nn3c(Cc4ccccc4)nnc3s2)c(Cl)cc1OCc1nn2c(Cc3ccccc3)nnc2s1	> 100	> 100	> 100	10.4	> 100	> 100	> 100	> 100	> 100	> 100	> 100									
c1csc(-c2ccc(CNc3c4ccccc4nc4ccccc34)cc2)c1		4.06			3.28		38.4	55.6	38.6		3.28	2	1.76	6.29	13.6	5.57	1.69			
CSCC(CO)NC(=O)/C=C/c1c(C)[nH]c(=O)[nH]c1=O (centres undefined)	> 775	> 875	> 875			> 875	> 875		> 875	> 875	> 875									
Cc1cccc2c1Sc1ccccc1C2NC(=O)CN(C)C (centres undefined)	> 100	> 100	> 100	> 100	> 100	> 100	> 100		> 100	> 100	> 100									
O=C1C(c2c(O)[nH]c3ccc(Cl)cc23)=Nc2ccccc21	> 100	> 100	19.3	> 100	18.8	> 28.1	38	> 100	37	17.6	> 100									
O=S(O)CCCSSSCCCS(=O)O		> 100		> 100	> 100	> 100	> 100			> 100	> 100									
Cc1ccc(C(C)C)c(OCC(=O)N/N=C/c2c[nH]c3ccc(Br)cc23)c1	3.55	15.9	13.1	4.97	9.15	17.6	22	24.8		11.1	21.8									
CC1(C)N=C(c2ccccc2)SC12S[C@@H]1CCCC[C@H]1S2	> 100	> 100	> 100		> 100	> 100	> 100	> 100	> 100	> 100	> 100									
CN(C)c1cccc(OC(=O)NCCCl)c1	> 100	> 100	> 100			> 100	> 100		> 100	> 100	> 100									
O=C(Sc1n[nH]c(=O)[nH]c1=O)c1cccc2nc3ccccc3nc12	5.76	39	> 100	> 100	> 100	> 100		> 100	> 100	> 100	90.9									
CN(c1ccccc1)c1nc(=[N+]2CCCC2)ss1	> 100	> 100	> 100	> 100	> 100				> 100	> 100	> 100									
c1ccc2c(c1)SP1Sc3ccccc3P21 (centres undefined)	> 100	> 100	> 100			> 100	> 100		> 66.6	> 100	> 100									
NNC(=O)c1cc([N+](=O)[O-])ccc1NC(=O)C12CC3CC(CC(C3)C1)C2	64.2	59.3	8.53	55.6	59.5	> 100	> 100	72.2	40.3	37.7										
COc1cc(NCCC(=O)O)c2ncccc2c1		> 100	> 100	> 100	> 100	> 100	> 100	> 100	> 100	> 100	> 100									
Cc1ccc(Nc2nc(=O)c3c([nH]c4ccccc43)s2)cc1	24.7	31.5	35.1	> 100	23.9		21.8	43.7		25.5	> 100									
S=c1[nH]n2c(COc3ccc(Cl)cc3)nnc2s1	> 100	> 100	> 100	> 100	> 100	> 100	> 100	> 100	> 100	> 100	> 100									
c1ccc2c(c1)SCCc1cn[nH]c1-2	> 100	> 100	> 100			> 100	> 100		> 100	> 100	> 100									
COC(=O)c1sc2c(c1C(=O)OC)C(=NC(C)(C)C)SC2=NC(C)(C)C	34	32.6	36.2	33.8	33.2	37.2	39	31.4	34.9	32.3	32									
N#C/C(=C\c1ccc([N+](=O)[O-])o1)c1n[nH]c(Cc2ccccc2)n1	2.74	4.26	3.11		4.15	3.5	5.92	4.2	6.04	10.7	4.09									
COCCNCc1ccc(-c2cc3nccc(Oc4ccc(NC(=O)C5(C(=O)Nc6ccc(F)cc6)CC5)cc4F)c3s2)nc1	3.68	3.33		6.04	4.43		3.43	6.29	4.73	3.79		1.59	2.21	1.57	2.01	1.89		1.55	1.96	1.89
CC[C@@H]([C@H](O)c1ccccc1Cl)[N+](=O)[O-]	> 100	> 100	> 100	> 100	> 100	> 100	> 100	> 100	> 100	> 100	> 100									
